# According to patent publication US8063231B2, “Methods of treating alpha adrenergic mediated conditions” (Allergan, Inc., priority 2008, dated 2011):
# “And” between values parts separate entries of the source, which are not always exact repeats. Equal entries are not always repeated.
# Experiments:
# Chung model rats = test: Tactile allodynia reversal in Chung model of chronic pain (spinal nerve ligation, von Frey hairs); type: in vivo, rat
# Procedure: Various concentrations of N-(2,3-dichlorobenzyl)-4,5-dihydro-1H-imidazol-2-amine were administered orally to Chung model rats. A model in accordance with Kim and Chung 1992, Pain […], pp 355-363 (Chung model), for chronic pain (in particular peripheral neuropathy) involves the surgical ligation of the L5 (and optionally the L6) spinal nerves on one side in experimental animals. Rats recovering from the surgery gain weight and display a level of general activity similar to that of normal rats. However, these rats develop abnormalities of the foot, wherein the hindpaw is moderately everted and the toes are held together. More importantly, the hindpaw on the side affected by the surgery appears to become sensitive to pain from low-threshold mechanical stimuli, such as that producing a faint sensation of touch in a human, within about 1 week following surgery. This sensitivity to normally non-painful touch is called “tactile allodynia” and lasts for at least two months. The response includes lifting the affected hindpaw to escape from the stimulus, licking the paw and holding it in the air for many seconds. None of these responses is normally seen in the control group.
# Rats are anesthetized before surgery. The surgical site is shaved and prepared either with betadine or Novacaine. Incision is made from the thoracic vertebra XIII down toward the sacrum. Muscle tissue is separated from the spinal vertebra (left side) at the L4-S2 levels. The L6 vertebra is located and the transverse process is carefully removed with a small rongeur to expose the L4-L6 spinal nerves. The L5 and L6 spinal nerves are isolated and tightly ligated with 6-0 silk thread. The same procedure is done on the right side as a control, except no ligation of the spinal nerves is performed.
# A complete hemostasis is confirmed, then the wounds are sutured. A small amount of antibiotic ointment is applied to the incised area, and the rat is transferred to the recovery plastic cage under a regulated heat-temperature lamp. On the day of the experiment, at least seven days after the surgery, typically six rats per test group are administered the test drugs by intraperitoneal (i.p.) injection or oral gavage. […], the compounds are formulated in d H2O and given in a volume of 1 ml/kg body weight using an 18-gauge, 3 inch gavage needle that is slowly inserted through the esophagus into the stomach.
# Tactile allodynia is measured prior to and 30 minutes after drug administration using von Frey hairs that are a series of fine hairs with incremental differences in stiffness. Rats are placed in a plastic cage with a wire mesh bottom and allowed to acclimate for approximately 30 minutes. The von Frey hairs are applied perpendicularly through the mesh to the mid-plantar region of the rats' hindpaw with sufficient force to cause slight buckling and held for 6-8 seconds. The applied force has been calculated to range from 0.41 to 15.1 grams. If the paw is sharply withdrawn, it is considered a positive response. A normal animal will not respond to stimuli in this range, but a surgically ligated paw will be withdrawn in response to a 1-2 gram hair. The 50% paw withdrawal threshold is determined using the method of Dixon, W. J., Ann. Rev. Pharmacol. Toxicol. 20:441-462 (1980) hereby incorporated by reference. The post-drug threshold is compared to the pre-drug threshold and the percent reversal of tactile sensitivity is calculated based on a normal threshold of 15.1 grams.
# wild type rats = test: Sedative effects (total activity counts) after intraperitoneal injection; type: in vivo, rat; conditions: for Sedative Effect (IP): 30 minutes post injection
# Procedure: FIG. 2 depicts sedative effects (total activity counts) 30 minutes post intraperitoneal injection of 1 mg/kg and 10 mg/kg doses of N-(2,3-dichlorobenzyl)-4,5-dihydro-1H-imidazol-2-amine.
# Data was acquired from wild type rats administered N-(2,3-dichlorobenzyl)-4,5-dihydro-1H-imidazol-2-amine intraperitoneally (IP). Rats were split into groups of six and administered 1 mg/kg or 10 mg/kg doses of N-(2,3-dichlorobenzyl)-4,5-dihydro-1H-imidazol-2-amine to assess the sedative effects of the administration of the agent.
smiles,measurement,setting,value
"Clc1cccc(CNC2=NCCN2)c1Cl [N-(2,3-dichlorobenzyl)-4,5-dihydro-1H-imidazol-2-amine]","Peak Allodynia Reversal (Oral, 30 min.)",Chung model rats; 30 μg/kg oral,28% and 28% +/− 9.5%
same,"Peak Allodynia Reversal (Oral, 30 min.)",Chung model rats; 100 μg/kg oral,68% +/− 12.7%
same,"Peak Allodynia Reversal (Oral, 30 min.)",Chung model rats; 300 μg/kg oral,84% +/− 7.5%
same,Time at which analgesic effect was seen (peak percent allodynia reversal),"Chung model rats; single oral dose, FIG. 1",about 30 minutes
same,Time of decrease of allodynia reversal to baseline,"Chung model rats; single oral dose, FIG. 1",about 120 minutes
same,Sedative Effect (IP),wild type rats; 1 mg/kg IP,No significant effect
same,Sedative effect (in words),wild type rats; 10 mg/kg IP,significant sedative effect
same,Sedative Effect (IP),wild type rats; 10 mg/kg IP,23% sedating
